Measurements published in PMC1931592 (BMC Pharmacology, 2007).
“Also recorded” adds a separate entry of the source.

How the values were obtained:
Type in all cases: biochemical
[1] = target: T1, recombinant human caspase-9 (Homo sapiens, UniProt P55211); test: Ac-DNLD-MCA and Ac-DEVD-MCA cleavage assay, caspase-9; settings: 200 μM substrate, 37°C, MCA liberation
T1 sequence (P55211 140-315 limits assumed): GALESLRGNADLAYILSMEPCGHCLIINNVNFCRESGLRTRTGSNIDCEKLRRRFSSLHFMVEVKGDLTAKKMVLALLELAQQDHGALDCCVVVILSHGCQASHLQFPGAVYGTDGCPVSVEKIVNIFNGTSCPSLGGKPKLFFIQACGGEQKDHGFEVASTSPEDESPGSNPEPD
T1 sequence (P55211 331-416 limits assumed): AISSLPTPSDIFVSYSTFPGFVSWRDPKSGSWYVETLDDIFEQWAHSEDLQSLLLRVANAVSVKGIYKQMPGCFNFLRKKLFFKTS
Protocol: (§1) To characterize the potency and selectivity of Ac-DNLD-MCA for caspases-3, -7, -8, and -9, in vitro caspase activity assays were performed. One unit (the amount of enzyme that cleaves 1 nmol of substrate per hr) of each active recombinant human caspase was added to a reaction mixture containing 200 μM Ac-DNLD-MCA or Ac-DEVD-MCA in assay buffer (100 mM NaCl, 50 mM HEPES, 10 mM DTT, 1 mM EDTA, 10% glycerol, and 0.1% CHAPS, pH 7.4). Then, the liberation of MCA was monitored continuously at 37°C using a 96-well plate reader Wallace 1420 ARVOsx (PerkinElmer) with an excitation wavelength of 390 nm and an emission wavelength of 460 nm.

[2] = target: T2, substituted (S209A) caspase-3 (Homo sapiens, UniProt P42574, S209A); test: Cleavage assay with substituted (S209A) caspase-3 versus wild-type; settings: S209A versus wild-type caspase-3
T2 construct: Active caspase-3 was generated by coexpression of HA-p17 and HA-p12 (wild type or mutant) subunits in vitro; (position 176–208, antisense); made in house
T2 sequence (P42574 29-175 limits assumed): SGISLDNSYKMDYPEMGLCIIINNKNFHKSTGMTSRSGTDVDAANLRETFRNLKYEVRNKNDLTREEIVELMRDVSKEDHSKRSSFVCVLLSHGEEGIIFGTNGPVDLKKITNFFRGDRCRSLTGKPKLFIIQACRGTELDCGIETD
T2 sequence (P42574 176-277 S209A limits assumed): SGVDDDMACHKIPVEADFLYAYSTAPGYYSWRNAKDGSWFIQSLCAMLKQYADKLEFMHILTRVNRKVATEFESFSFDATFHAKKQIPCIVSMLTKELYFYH
Protocol: as §1
Site-directed mutagenesis of p12 subunit (S209A) was introduced using PCR. The following primers were used for the preparation of the mutant, 5'-[…] TGACATG-3' (position 176–208, sense) and 5'-[…]-3' (position 176–208, antisense); 5'-[…]-3' (position 209–277, sense) and 5'-[…]-3' (position 209–277, antisense). The mutated site (Ser209→Ala) was shown in bold letter. After each fragments were amplified and ligated, they were tagged with HA and subcloned into pcDNA3 B (Invitrogen) at the EcoRV site. After comfirming the sequences, the inserts were excited by XhoI digestion and recloned into the XhoI site of pURE4 (Post Genome Institute Co., Ltd.) […]

[3] = target: T3, recombinant human caspase-8 (Homo sapiens, UniProt Q14790); test: Ac-DNLD-MCA and Ac-DEVD-MCA cleavage assay, caspase-8; settings: 200 μM substrate, 37°C, MCA liberation
T3 construct: each active recombinant human caspase was incubated; purchased Calbiochem
T3 sequence (Q14790 217-374 limits assumed): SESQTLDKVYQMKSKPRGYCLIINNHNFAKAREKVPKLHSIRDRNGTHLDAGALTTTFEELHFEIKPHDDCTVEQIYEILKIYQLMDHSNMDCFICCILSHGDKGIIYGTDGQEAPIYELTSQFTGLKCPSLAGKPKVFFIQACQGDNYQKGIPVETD
T3 sequence (Q14790 385-479 limits assumed): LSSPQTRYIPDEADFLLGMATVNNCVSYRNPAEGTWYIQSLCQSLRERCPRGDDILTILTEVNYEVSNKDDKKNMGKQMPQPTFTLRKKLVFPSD
Protocol: as §1

[4] = target: T4, recombinant human caspase-7 (Homo sapiens, UniProt P55210); test: Ac-DNLD-MCA and Ac-DEVD-MCA cleavage assay, caspase-7; settings: 200 μM substrate, 37°C, MCA liberation
T4 construct: each active recombinant human caspase was incubated; purchased Calbiochem
T4 sequence (P55210 24-198 limits assumed): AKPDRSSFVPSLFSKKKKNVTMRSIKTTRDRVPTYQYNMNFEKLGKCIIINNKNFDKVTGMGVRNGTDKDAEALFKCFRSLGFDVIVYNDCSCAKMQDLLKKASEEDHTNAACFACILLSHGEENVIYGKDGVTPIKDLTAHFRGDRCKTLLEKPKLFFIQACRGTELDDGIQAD
T4 sequence (P55210 207-303 limits assumed): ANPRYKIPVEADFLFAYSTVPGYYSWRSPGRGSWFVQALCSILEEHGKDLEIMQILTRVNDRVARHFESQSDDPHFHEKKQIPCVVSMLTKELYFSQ
Protocol: as §1

Ac-DEVD-MCA
cleavage of fluorometric substrate by caspase-9 (in words) [1]: able to cleave | cleavage of substrate by S209A caspase-3 compared with wild-type (in words) [2]: virtually no effect; also recorded: as efficient as the wild-type | cleavage of fluorometric substrate by caspase-8 (in words) [3]: able to cleave | cleavage of fluorometric substrate by caspase-7 (in words) [4]: able to cleave
